The values that follow come from ChEMBL document CHEMBL4033771, “Development of Potent Myostatin Inhibitory Peptides through Hydrophobic Residue-Directed Structural Modification” (ACS Med Chem Lett, 2017).

The test system of assay [1] is Mus musculus. Put plainly: Increase in tibialis anterior muscle weight in wild type ICR mouse at 0.75 mM, im administered on day 0 and 14 measured on day 42 relative to control. The class given is functional.
Assay [2] relates to Mus musculus. Briefly: Increase in gastrocnemius muscle fiber size in mdx mouse at 0.75 mM, im administered on day 0 and 14 measured on day 42 by Hematoxylin and Eosin staining based assay. Format: functional, organism-based.
Assay [3] deals with Mus musculus. Briefly: Increase in gastrocnemius muscle weight in wild type ICR mouse at 0.75 mM, im administered on day 0 and 14 measured on day 42 relative to control. The class given is functional.
Assay [4] concerns Mus musculus. Briefly: Increase in tibialis anterior muscle weight in mdx mouse at 0.75 mM, im administered on day 0 and 14 measured on day 42 relative to control. Format: functional.
The subject of assay [5] is Mus musculus. Put plainly: Increase in tibialis anterior muscle weight in wild type mouse at 20 nmol, im after 28 days relative to control. Format: functional.
Assay [6] relates to Mus musculus. Briefly: Increase in tibialis anterior muscle weight in caveolin 3-deficient limb gridle muscular destrophy 1C mouse model at 20 nmol, im after 28 days relative to control. Format: functional.

The source made the active and inactive calls. The rule behind the calls is not given here. Where a SMILES comes first, the peptide text is derived from it. The star is where a group is joined. Acetyl(2-naphthyloxy) = O=C(COc1ccc2ccccc2c1)*

Consider `CC[C@H](C)[C@H](NC(=O)[C@H](CCCNC(=N)N)NC(=O)[C@H](CO)NC(=O)[C@H](Cc1ccc(O)cc1)NC(=O)[C@H](CCCNC(=N)N)NC(=O)[C@@H](NC(=O)[C@H](CC(N)=O)NC(=O)[C@H](CCC(N)=O)NC(=O)[C@H](CCCNC(=N)N)NC(=O)COc1ccc2ccccc2c1)[C@@H](C)O)C(=O)N[C@@H](CCC(=O)O)C(=O)N[C@@H](Cc1c[nH]c2ccccc12)C(=O)N[C@H](C(=O)N[C@@H](CCCCN)C(=O)N[C@H](C(=O)N[C@@H](CCC(N)=O)C(=O)N[C@H](C(=O)N[C@H](C(=O)N[C@@H](CO)C(=O)N[C@@H](CCCCN)C(=O)N[C@@H](CC(C)C)C(=O)N[C@@H](CCCNC(=N)N)C(=O)N[C@@H](CC(C)C)C(N)=O)[C@@H](C)CC)[C@@H](C)CC)[C@@H](C)CC)[C@@H](C)CC` ({Acetyl(2-naphthyloxy)}-RQNTRYSRIEWIKIQIISKLRL-NH2), for which the Activity with Mus musculus [1] was 10 - 34%; with Mus musculus [3], 11 - 35%; in the assay on Mus musculus [4], 10 - 19%. The outcome in the assay with Mus musculus [2] was Active.
In the case of `CC[C@H](C)[C@H](NC(=O)[C@H](C)NC(=O)[C@H](CCC(=O)O)NC(=O)[C@@H](NC(=O)[C@H](CCCNC(=N)N)NC(=O)[C@H](CO)NC(=O)[C@H](Cc1ccc(O)cc1)NC(=O)[C@H](CCCNC(=N)N)NC(=O)[C@@H](NC(=O)[C@H](CC(N)=O)NC(=O)[C@H](CCC(N)=O)NC(=O)[C@H](CCCNC(=N)N)NC(=O)[C@H](Cc1c[nH]c2ccccc12)NC(=O)[C@H](C)NC(=O)[C@@H](N)CS)[C@@H](C)O)[C@@H](C)CC)C(=O)N[C@@H](CCCCN)C(=O)N[C@H](C(=O)N[C@@H](CCC(N)=O)C(=O)N[C@H](C(=O)N[C@@H](CC(C)C)C(=O)N[C@@H](CO)C(=O)N[C@@H](CCCCN)C(=O)N[C@@H](CC(C)C)C(=O)N[C@@H](CCCNC(=N)N)C(=O)N[C@@H](CC(C)C)C(=O)N[C@@H](CCC(=O)O)C(=O)N[C@H](C(=O)N[C@@H](C)C(=O)N1CCC[C@H]1C(N)=O)[C@@H](C)O)[C@@H](C)CC)[C@@H](C)CC` (H-CAWRQNTRYSRIEAIKIQILSKLRLETAP-NH2), the Activity with Mus musculus [5] is recorded as 10.6%; in the assay with Mus musculus [6], 20.6%.
